Results from the supplement of paper PMC10307832.

How the values were obtained:
Assay in all cases: relative viability (nuclei count vs DMSO), 5 days (fraction); higher = more cells survive
[1] = compound: C=CCNC1=C2C[C@@H](C)C[C@H](OC)[C@H](O)[C@@H](C)/C=C(\C)[C@H](OC(N)=O)[C@@H](OC)/C=C\C=C(/C)C(=O)NC(=CC1=O)C2=O [17-AAG] + CC(=O)Nc1cccc(-n2c(=O)n(C3CC3)c(=O)c3c(Nc4ccc(I)cc4F)n(C)c(=O)c(C)c32)c1 [Trametinib] (partner 0.02 µM)
Procedure, shortened: (§1)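 Relative viability is defined as nuclei in treated wells over nuclei in vehicle wells. Duplicate plates were run and medians reported. Lung cancer cell lines in 1536-well plates were dosed by pin tool one day after seeding, with one drug or with a fixed anchor-drug dose plus five library-drug doses (not always all listed) in √10 steps, and nuclei were counted after 5 days.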

[2] = compound: C=CCNC1=C2C[C@@H](C)C[C@H](OC)[C@H](O)[C@@H](C)/C=C(\C)[C@H](OC(N)=O)[C@@H](OC)/C=C\C=C(/C)C(=O)NC(=CC1=O)C2=O [17-AAG] + O=C(c1cc(Cc2n[nH]c(=O)c3ccccc23)ccc1F)N1CCN(C(=O)C2CC2)CC1 [Olaparib] (partner 8 µM)
Procedure, shortened: as §1

[3] = compound: C=CCNC1=C2C[C@@H](C)C[C@H](OC)[C@H](O)[C@@H](C)/C=C(\C)[C@H](OC(N)=O)[C@@H](OC)/C=C\C=C(/C)C(=O)NC(=CC1=O)C2=O [17-AAG] + CS(=O)(=O)CCNCc1ccc(-c2ccc3ncnc(Nc4ccc(OCc5cccc(F)c5)c(Cl)c4)c3c2)o1 [Lapatinib] (partner 2 µM)
Procedure, shortened: as §1

[4] = compound: C=CCNC1=C2C[C@@H](C)C[C@H](OC)[C@H](O)[C@@H](C)/C=C(\C)[C@H](OC(N)=O)[C@@H](OC)/C=C\C=C(/C)C(=O)NC(=CC1=O)C2=O [17-AAG] + N=C(N)NC(=N)NCCc1ccccc1 [Phenformin] (partner 250 µM)
Procedure, shortened: as §1

Cell Line	relative viability ([1]; first compound 0.004048 µM)	relative viability ([1]; first compound 0.0128 µM)	relative viability ([1]; first compound 0.04048 µM)	relative viability ([1]; first compound 0.128 µM)	relative viability ([2]; first compound 0.004048 µM)	relative viability ([2]; first compound 0.0128 µM)	relative viability ([2]; first compound 0.04048 µM)	relative viability ([2]; first compound 0.128 µM)	relative viability ([1]; first compound 0.00128 µM)	relative viability ([3]; first compound 0.00128 µM)	relative viability ([3]; first compound 0.004048 µM)	relative viability ([3]; first compound 0.0128 µM)	relative viability ([3]; first compound 0.04048 µM)	relative viability ([3]; first compound 0.128 µM)	relative viability ([2]; first compound 0.00128 µM)	relative viability ([4]; first compound 0.00128 µM)	relative viability ([4]; first compound 0.004048 µM)	relative viability ([4]; first compound 0.0128 µM)	relative viability ([4]; first compound 0.04048 µM)	relative viability ([4]; first compound 0.128 µM)
NCI-H1648	0.541	0.463	0.368	0.219	0.716	0.921	0.9	0.317	–	–	–	–	–	–	–	–	–	–	–	–
NCI-H2087	0.213	0.184	0.115	0.124	0.216	0.168	0.134	0.129	0.206	0.823	0.808	0.477	0.238	0.135	0.649	0.394	0.232	0.138	0.125	0.105
LU99A	0.538	0.508	0.384	0.134	0.26	0.237	0.165	0.162	0.549	0.885	0.965	0.323	0.288	0.141	0.271	0.725	0.734	0.468	0.225	0.116
HCC-366	0.389	0.0548	0.0372	0.0284	0.357	0.0266	0.0306	0.0265	0.399	0.858	0.691	0.0214	0.0204	0.0219	0.414	0.653	0.591	0.159	0.0455	0.0292
EKVX	0.306	0.289	0.127	0.117	0.762	0.775	0.175	0.126	0.341	0.223	0.218	0.197	0.0769	0.12	0.826	0.26	0.222	0.139	0.195	0.0638
NCI-H522	0.836	0.679	0.686	0.374	0.878	0.505	0.485	0.399	0.724	–	–	–	–	–	0.517	0.627	0.599	0.635	0.294	0.471
NCI-H1755	0.716	0.705	0.741	0.23	0.849	0.903	0.712	0.238	0.808	1.06	0.972	0.772	0.27	0.165	0.873	0.622	0.57	0.578	0.254	0.0941
